The source of these data is patent US7888367B2, “1-[2′,3′ -dideoxy-3′ C-(hydroxymethyl)—beta-D-erythro-pentofuranosyl] cytosine derivatives as HIV” (Medivir AB, priority 2005, dated 2011).

The structures appear in SMILES notation.

Series [1] deals with HIV-1 primer rescue-related TAM patient isolates 20 and 21. Kind of series: PhenoSense HIV assay, Example 2a. The series is classed as cell-based. To be noted: for potency against patient virus compared to wildtype: isolates 20 and 21. The method, then:
(§1) The susceptibility of the compounds of the invention, measured as the plasma metabolite 2′,3′-dideoxy, 3′-C-hydroxymethyl-β-D-erythropentofuranosylcytosine on HIV-1 isolates from patient plasma samples that bear typical TAM primer rescue mutant resistant genotypes is determined by the commercially available PhenoSense HIV assay (described in Petropoulos, C J et al., (2000) Antimicrob. Agents Chemother. 44:920-928 and performed by ViroLogics, Inc). The assay is performed by amplifying the protease (PR)—RT segment of the HIV pol gene from patient plasma and inserting the amplification products into a modified HIV-1 vector derived from an NL4-3 molecular clone.
(§2) Viral stocks are prepared by co-transfecting 293 cell cultures with recombinant viral DNA vector and an expression vector that produces the amphotropic murine leukemia virus envelope proteins. Pseudotyped virus particles are harvested from the transfected cell cultures and are used to infect fresh 293 cell cultures. The recombinant viral DNA contains a luciferase gene cassette within the HIV env gene region and the production of luciferase in target cells is dependent on the completion of one round of virus replication. Drug susceptibility is measured by adding serial concentrations of the compound of the invention and the reference compounds to the cells. Drugs that inhibit virus replication reduce luciferase signal in a dose-dependent manner, providing a quantitative measure of drug susceptibility.
Wild-type HIV virus is used as the reference. Here, the inhibition of the patient isolate 20 and 21 strains is expressed as the fold change in reduction of susceptibility to the treatment drug as compared to parallel runs of the reference. The following antiviral drugs were tested: AZT, 3TC, TNF, ABC, d4T, FTC and the compound of the invention, as the plasma metabolite 2′,3′-dideoxy, 3′-C-hydroxymethyl-β-D-erythropentofuranosylcytosine.

Series [2] has as its system HIV-1 isolate 4 (K65R+M184V discriminative mutant). The experiment in a line: PhenoSense HIV assay, Example 2d. It counts as cell-based.
For series [3] the following is noted: reference compounds (markers) of the permeability assay; cited from earlier work.
Series [4] relates to HIV-1 TAM primer rescue-related patient isolate 19 (M184V + TAMs). The experiment in a line: PhenoSense HIV assay, Example 2b. The series is classed as cell-based. The method, then:
as §1
as §2, with “The recombinant viral DNA contains a luciferase gene cassette within the HIV env gene region and the production of luciferase in target cells is dependent on the completion of one round of virus replication.” left out, “susceptibility. […]” for “susceptibility.”

In series [5] the test system is TAM primer rescue-related resistant HIV-1 isolates in PBMC. Kind of series: Drug susceptibility assay in PBMC culture (p24 antigen). The series is classed as cell-based. Here is the method: The antiviral performance of the compound of the invention against additional TAM primer rescue-related resistant HIV isolates was assayed in a PBMC culture. Isolates of HIV-1 were generated and expanded to high titer by co-cultivation of infected patient PBMC with PHA-stimulated donor PBMC (Virology Manual for ACTG HIV Laboratories). The cell-free supernatants were harvested, sequenced, and stored in aliquots at −70° C. for drug susceptibility assays.
In vitro drug susceptibility assays were performed using a modified ACTG/DOD consensus method (Virology Manual for ACTG HIV laboratories). PBMCs were pre-infected with viral stocks for 4 hrs at 37° C. in a humidified atmosphere of 5% CO2 following 4 hr incubation. Infected cells were washed twice in media and pipetted into a microtiter plate with eight serial drug dilutions. Each well contained 100,000 pre-infected PBMC and all drug dilutions were made with cell culture medium. The drug dilutions were chosen to span the 50% inhibitory concentration (IC50) for each single drug. Control wells containing cells and virus were co-incubated on each plate. After a 7-day incubation at 37° C. in a […] atmosphere of 5% CO2, viral growth was determined using a p24 antigen assay on supernatants (Abbott Laboratories, Chicago, USA). The percent inhibition of viral growth compared to the control well, which contained no drug, was calculated and expressed as fold changes (reductions in compounds susceptibility) compared to the control well. The reference compound AZT was run in parallel with the compound of the invention.
A cluster of representative of primer rescue-related mutant virus was selected that harbors the essential feature of primer rescue-related TAM resistant RT mutations. Strains with mutations at position M41L, D67N, K70R, L210W, T215Y/F and K219Q/E in various combinations with or without discriminative mutant M184V were used as indicated in Table 4.

Series [6] concerns HIV-1 primer rescue-related patient isolates 31, 32 and 35 (T69S+XX+TAMs). Kind of series: PhenoSense HIV assay, Example 2c. It counts as cell-based. The method, then:
as §1, §2
Continuous challenge of patients with antiretroviral agents results in the emergence of MDR. A T69S mutation with a 6-bp insertion between amino acids 68 and 70 in the finger region of RT is often seen in combination with various forms of TAMs and contributes to an enhanced primer rescue activity. A cluster of MDR (with different forms of amino acid insertion(s)) in combination with TAM was chosen, as outlined in Table 3.

On to `C[C@H](Cn1cnc2c(N)ncnc21)OCP(=O)(O)O` [TFN, tenofovir], for which the “potency against patient virus compared to wildtype” value (“potency … compared to wildtype” below) in series [1] was “lost potency”.

As for `Nc1nc(NC2CC2)c2ncn([C@H]3C=C[C@@H](CO)C3)c2n1` [ABC, abacavir], the “FC value (fold change in susceptibility)” value in series [2] is listed as above 9.0. In series [1], the “potency … compared to wildtype” value is on record as “lost potency”.

As to `Cc1cn([C@H]2C=C[C@@H](CO)O2)c(=O)[nH]c1=O` [d4T, stavudine], in series [2], the “FC value (fold change in susceptibility)” value worked out at 0.71. Moreover, in series [1], the “potency … compared to wildtype” value is on record as “lost potency”.

For the molecule `CN(Cc1cnc2nc(N)nc(N)c2n1)c1ccc(C(=O)N[C@@H](CCC(=O)O)C(=O)O)cc1` [Methotrexate], the “% absorption in man” value in series [3] was 20%.

Regarding `Cc1cn([C@H]2C[C@H](N=[N+]=[N-])[C@@H](CO)O2)c(=O)[nH]c1=O` [AZT, zidovudine], the “FC value (fold change in susceptibility)” value in series [2] was found to be 1.11. The “activity against the resistant virus” value in series [4] is “lost activity”. Besides, the “fold reduction in susceptibility vs wild-type HIV” value in series [1] (isolates 20 and 21, isolate not specified) stood at 451 fold. The FC value in series [5] (isolate 7086 (T215V)) is recorded as 3.0. In series [5] (most of the selected primer rescue mutants), the “drop in FC value” was “a couple of hundred folds”.

For `Nc1nc(=O)n([C@@H]2CS[C@H](CO)O2)cc1F` [FTC, emtricitabine], the “FC value (fold change in susceptibility)” value in series [2] is reported as above 40. Besides, in series [1], the “potency … compared to wildtype” value is “lost potency”.

In the case of `OC[C@@H](O)[C@@H](O)[C@H](O)[C@H](O)CO` [Mannitol], the “% absorption in man” value in series [3] was 16%.

`Nc1ccn([C@H]2C[C@H](CO)[C@@H](CO)O2)c(=O)n1` [2′,3′-dideoxy, 3′-C-hydroxymethyl-β-D-erythropentofuranosylcytosine]: in series [2], the “FC value (fold change in susceptibility)” value is listed as 3.88. The “fold difference in susceptibility compared to wild type HIV” value in series [4] stood at 1.78 fold. The entries for the “fold change in susceptibility” value in series [6] (isolate 32) and in series [6] (isolate 35) were 2.79 fold and 4.29 fold, respectively. For the same molecule, in series [6] (isolates 31, 32 and 35), the “change in drug susceptibility compared with six reference antivirals” value is given as “smallest change in drug susceptibility”. Moreover, the “fold reduction in susceptibility vs wild-type HIV” value was 1.0 fold in series [1] (isolate 20) and below 1.0 fold in series [1] (isolate 21). The “highest FC value over all 8 isolates” value in series [5] (all 8 isolates of Table 4) is recorded as at most 2.7.

As to `N[C@@H](Cc1ccccc1)C(=O)O` [L-Phenylalanine], in series [3], the “% absorption in man” value is 100%.

Regarding `Nc1ccn([C@@H]2CS[C@H](CO)O2)c(=O)n1` [Example 3TC, lamivudine], in series [2], the “FC value (fold change in susceptibility)” value is on record as above 200.
